Reference: PMC9416004, “A Versatile Class of 1,4,4-Trisubstituted Piperidines Block Coronavirus Replication In Vitro” (Pharmaceuticals, 2022)
Read-outs that look alike come from different tables or passages of the source.

Key:
in vitro [1] = details: human
HCoV-229E [2] = assay: Cytopathic effect (CPE) reduction assay with HCoV-229E in HEL cells; assay type: cell-based, human coronavirus 229E; details: for EC50: Human coronavirus 229E, 120 h, HCoV-229E-infected HEL cells, five days at 35 °C; for Selectivity Index Microscopy: ratio of MCC to EC50-microscopy; for Selectivity Index Microscopy / Selectivity Index MTS: only values of 10 or higher shown; for Selectivity Index MTS: ratio of CC50 to EC50-MTS
[3] = system: human embryonic lung (HEL) fibroblast cells; details: mock-infected HEL cells; microscopically visible alterations in cell morphology
HCoV-229E [4] = assay: One-cycle time-of-compound addition (TOA) assay with HCoV-229E in HEL cells; assay type: cell-based, human coronavirus 229E; details: compound added at 8 h p.i.; HEL cells lysed at 16 h p.i.; 33 15 µM, GC376 25 µM, GS-441524 20 µM, K22 15 µM
[5] = target: SARS-CoV-2 nsp5 main protease (M^pro) (Severe acute respiratory syndrome coronavirus 2, UniProt P0DTD1); assay: FRET-based M^pro enzymatic assay; assay type: biochemical
Experimental: Serial dilutions of the compounds were incubated with purified nsp5 protein in the presence of substrate (Dabcyl-KTSAVLQ↓SGFRKM-Edans-NH2), and peptide cleavage was followed by an increase in fluorescence. The compounds’ IC50 values were determined by Hill curve fitting. Values are the mean ± SEM (N = 3).
After transforming the pGEX-6P-1 plasmid in E. coli BL21 DE3 gold, nsp5 production was stimulated by overnight induction with 250 μM IPTG at a temperature of 17 °C. After centrifugation, the bacteria were resuspended in buffer consisting of: 50 mM Tris pH 8; 300 mM NaCl; 5 mM MgSO4; 1 mM PMSF; 10 μg/mL DNAse I; 0.25 mg/mL Lysozyme; 0.1%Triton X-100; and 10% glycerol. The cells were lysed by three cycles of sonication and centrifugation. The nsp5 protein was bound to Co-NTA agarose beads and eluted in lysis buffer containing 250 mM of imidazole. Next, the protein product was concentrated on a Vivaspin 20 centrifugal concentrator (10 kDa cut-off; GE Healthcare) and imidazole was removed by dialysis. Finally, the purified nsp5 was stored at −80 °C with 50% glycerol.
M^pro enzymatic assay. The fluorescence resonance energy transfer (FRET)-based protease assay was performed in black 384-well plates. Briefly, serial dilutions of the compounds were incubated with 80 nM nsp5 protein and 5 μM peptide substrate (Dabcyl-KTSAVLQ↓SGFRKM-Edans-NH2; Genscript) in buffer consisting of: 20 mM HEPES pH 6.5; 120 mM NaCl; 0.4 mM EDTA; 4 mM dithiothreitol; and 10% glycerol. The final DMSO content was 0.5%. Cleavage of the substrate was monitored for 40 min by measuring the increasing fluorescence in a Tecan Safire 2 plate reader (wavelength settings: excitation at 335 nm and emission at 493 nm). For each condition, enzyme activity was derived from the slope for the linear part of the curve and expressed relative to the activity in the condition receiving no compound. To determine the IC50 values, GraphPad Prism software was used to plot the % of enzyme activity against compound concentration and then fit the curves according to the equation Y = 100/(1 + (X/IC50)^HillSlope).

in vitro [6] = details: human; remark: listed apart in the source
SARS-CoV-2 = assay: RT-qPCR-based SARS-CoV-2 viral load reduction assay in A549-AT cells; assay type: cell-based; details: for Antiviral activity EC99: 100-fold reduction in viral RNA copies in supernatant at day 3 p.i.; for EC90: Severe acute respiratory syndrome coronavirus 2, 72 h, 10-fold reduction in viral RNA copies in supernatant at day 3 p.i., read-out: Antiviral activity EC90
[7] = target: SARS-CoV-2 nsp10/nsp16 2'O-MTase (Severe acute respiratory syndrome coronavirus 2, UniProt P0DTD1); assay: Radioactive filter-binding MTase assay, nsp10/nsp16; assay type: biochemical; details: compound concentration of 200 µM
[8] = target: SARS-CoV-2 nsp14 N7-MTase (Severe acute respiratory syndrome coronavirus 2, UniProt P0DTD1); assay: Radioactive filter-binding MTase assay, nsp14; assay type: biochemical; details: compound concentration of 200 µM
[9] = protection against virus-induced CPE by MTS cell viability assay, read-out: Antiviral EC50 MTS
[10] = protection against virus-induced CPE by microscopic scoring, read-out: Antiviral EC50 Microscopy

Structure (SMILES)	CC50 (in vitro [1])	EC50 (HCoV-229E [2]; [9])	EC50 (HCoV-229E [2]; [10])	Selectivity Index Microscopy (HCoV-229E [2])	Cytotoxicity MCC (minimal cytotoxic concentration) [3]	inhibition of viral RNA synthesis (HCoV-229E [4])	IC50 [5]	CC50 (in vitro [6])	Selectivity Index MTS (HCoV-229E [2])	Antiviral activity EC99 (SARS-CoV-2)	EC90 (SARS-CoV-2)	inhibition at 200 µM [7]	inhibition at 200 µM [8]
O=C(N/C(=C\c1ccccc1)C(=O)N1CCC(O)(c2ccc(Br)cc2)CC1)c1ccccc1 [Compound K22, (Z)-N-[3-[4-(4-bromophenyl)-4-hydroxypiperidin-1-yl]-3-oxo-1-phenylprop-1-en-2-yl]benzamide, reference compound]	28 ± 3 µM	3.6 ± 0.6 µM	2.6 ± 0.5 µM	19	50 µM	100%							
COC(=O)C[C@H](NC(=O)OCc1ccccc1)C(=O)N(Cc1ccccc1)C1(C(=O)NCc2ccccc2)CCN(Cc2ccccc2)CC1 [Compound 33]	> 100 µM	3.3 ± 0.4 µM	3 ± 0.1 µM	>33	>100 µM	losing some activity	64 ± 8 µM	90 µM	>30	14 µM	9.3 µM		
CC(C)(C)OC(=O)NC(Cc1ccccc1)C(=O)N(Cc1ccccc1)C1(C(=O)NCc2ccccc2)CCN(Cc2ccc(F)cc2)CC1 (stereo not drawn) [Compound 60, Tert-butyl(1-(benzyl(4-benzylcarbamoyl-1-(4-fluorobenzyl)piperidin-4-yl)amino)-1-oxo-3-phenylpropan-2-yl)carbamate]		4 ± 0.1 µM	4.5 ± 0.2 µM		≥100 µM		68 ± 21 µM		>25	5.2 µM	2.2 µM	80%	
COC(=O)C[C@H](NC(=O)OCc1ccccc1)C(=O)N(Cc1ccc(F)cc1)C1(C(=O)NCc2ccccc2)CCN(Cc2ccccc2)CC1 [Compound 34]		3.4 ± 0.4 µM	3.1 ± 0.1 µM	26	81 µM		38 ± 5 µM		22	13 µM	8 µM		80%
N#C[C@@]1(c2ccc3c(N)ncnn23)O[C@H](CO)[C@@H](O)[C@H]1O [GS-441524, reference compound]		2.3 ± 0.2 µM	3.5 µM	>29	>100 µM	~ 90%			>43	4.6 µM	3.2 µM		
